The text below walks through data of BindingDB's records for PubMed 35598527 (Universidade Federal De Minas Gerais, 2022).

The nature of the assay: Antagonist activity at pig cerebral cortex CCK2 […] by Packbard-Cobra counter analysis.

By IC50 is commonly meant the concentration that gives 50% inhibition.

`C#CCOC1OC(=O)C(Cl)=C1N(CC(C)C)C1CCCCC1` (configuration not stated) came in with an IC50 of 80 nM.
The figure for `CC(C)CNC1=C(Cl)C(=O)OC1OCc1ccccc1` (configuration not stated) is 85 nM.
